We go through one molecule from the NIST ThermoML archive (doi:10.1016/j.jct.2009.07.010).

One may read the mass density as the mass of a sample divided by its volume.

The conditions of the data set: 298.15 K; 101.33 kPa; Liquid; Vibrating tube method.

SMILES strings stand for the structures. Numbers after ± are expanded uncertainties.

Take `CCn1cc[n+](C)c1.O=S(=O)([O-])C(F)(F)F` [1-ethyl-3-methylimidazolium trifluoromethanesulfonate]: the mass density was 1387.07 ± 2.2 kg/m3.
